Laboratory results from PubChem BioAssay (NCI).
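Briefly, cells in 96-well plates were exposed to five compound concentrations for 48 h, and endpoints were estimated by linear interpolation. GI50 is the concentration that inhibits growth by half. TGI: total growth inhibition.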

How the values were obtained:
Assay in all cases: NCI-60 cell line screen, 48 h
ACHN renal = system: ACHN renal
HCC-2998 colon = system: HCC-2998 colon
HCT-15 colon = system: HCT-15 colon
MALME-3M melanoma = system: MALME-3M melanoma
MOLT-4 leukemia = system: MOLT-4 leukemia
OVCAR-8 ovarian = system: OVCAR-8 ovarian
SF-295 CNS = system: SF-295 CNS
SN12C renal = system: SN12C renal
SNB-75 CNS = system: SNB-75 CNS
UACC-62 melanoma = system: UACC-62 melanoma

Work on `COc1ccc(CN2CCC/C=C/CC(Cl)(Cl)C2=O)cc1` yielded a TGI (ACHN renal) of 78.8 µM, a TGI (HCC-2998 colon) of over 100 µM and a TGI (HCT-15 colon) of over 100 µM. It also gave a TGI (MALME-3M melanoma) of 87.7 µM, a TGI (MOLT-4 leukemia) of 68 µM and a TGI (OVCAR-8 ovarian) of over 100 µM. It also gave a TGI (SF-295 CNS) of 68.6 µM, a TGI (SN12C renal) of over 100 µM and a TGI (SNB-75 CNS) of 64.8 µM. It also gave a TGI (UACC-62 melanoma) of over 100 µM.
Work on `CC(C)(C)C(=O)[CH-]C(=O)C(C)(C)C.CC(C)(C)C(=O)[CH-]C(=O)C(C)(C)C.CN(C)c1ccc([O-])cc1.CN(C)c1ccc([O-])cc1.[Ti+4]` yielded a GI50 (ACHN renal) of over 100 µM, a TGI (ACHN renal) of over 100 µM and a GI50 (HCC-2998 colon) of over 100 µM. The TGI (HCC-2998 colon) was over 100 µM, the GI50 (HCT-15 colon) was over 100 µM and the TGI (HCT-15 colon) was over 100 µM. It also gave a GI50 (MALME-3M melanoma) of over 100 µM, a TGI (MALME-3M melanoma) of over 100 µM and a GI50 (MOLT-4 leukemia) of over 100 µM. It also gave a TGI (MOLT-4 leukemia) of over 100 µM, a GI50 (OVCAR-8 ovarian) of over 100 µM and a TGI (OVCAR-8 ovarian) of over 100 µM. The GI50 (SF-295 CNS) was over 100 µM, the TGI (SF-295 CNS) was over 100 µM and the GI50 (SN12C renal) was over 100 µM. For the same molecule, the TGI (SN12C renal) was over 100 µM, the GI50 (SNB-75 CNS) was 26.1 µM and the TGI (SNB-75 CNS) was over 100 µM. The GI50 (UACC-62 melanoma) was over 100 µM and the TGI (UACC-62 melanoma) was over 100 µM.
In the case of `Cc1c2ccccc2cc2ccc3oc([N+](=O)[O-])cc3c12`, the TGI (ACHN renal) is reported as over 100 µM, the TGI (HCC-2998 colon) is reported as over 100 µM and the TGI (HCT-15 colon) is reported as over 100 µM. The TGI (MALME-3M melanoma) was over 100 µM, the TGI (MOLT-4 leukemia) was over 100 µM and the TGI (OVCAR-8 ovarian) was over 100 µM. For the same molecule, the TGI (SF-295 CNS) was over 100 µM, the TGI (SN12C renal) was over 100 µM and the TGI (SNB-75 CNS) was over 100 µM. For the same molecule, the TGI (UACC-62 melanoma) was over 100 µM.
In the case of `O=c1oc2ccccc2[n+]([O-])c1-c1ccccc1`, the TGI (ACHN renal) is reported as over 100 µM, the TGI (HCC-2998 colon) is reported as over 100 µM and the TGI (HCT-15 colon) is reported as over 100 µM. It also gave a TGI (MALME-3M melanoma) of over 100 µM, a TGI (MOLT-4 leukemia) of over 100 µM and a TGI (OVCAR-8 ovarian) of over 100 µM. For the same molecule, the TGI (SF-295 CNS) was over 100 µM, the TGI (SN12C renal) was over 100 µM and the TGI (SNB-75 CNS) was over 100 µM. It also gave a TGI (UACC-62 melanoma) of over 100 µM.
In the case of `CC(C)(Oc1ccc(/C=C/C(=O)c2ccc(Cl)cc2)cc1)C(=O)Nc1c(Cl)cccc1Cl`, the TGI (ACHN renal) is reported as 53 µM, the TGI (HCC-2998 colon) is reported as 51.5 µM and the TGI (HCT-15 colon) is reported as 29.3 µM. The TGI (MALME-3M melanoma) was 40.4 µM, the TGI (MOLT-4 leukemia) was 96.5 µM and the TGI (OVCAR-8 ovarian) was 30.5 µM. For the same molecule, the TGI (SF-295 CNS) was 49.6 µM, the TGI (SN12C renal) was 34.8 µM and the TGI (SNB-75 CNS) was 97.5 µM. It also gave a TGI (UACC-62 melanoma) of 38 µM.
`O=C(N/N=C/c1cccc(F)c1)c1ccncc1` was tested, and the TGI (ACHN renal) was over 100 µM, the TGI (HCC-2998 colon) was over 100 µM and the TGI (HCT-15 colon) was over 100 µM. For the same molecule, the TGI (MALME-3M melanoma) was over 100 µM, the TGI (MOLT-4 leukemia) was over 100 µM and the TGI (SF-295 CNS) was over 100 µM. For the same molecule, the TGI (SN12C renal) was over 100 µM and the TGI (SNB-75 CNS) was over 100 µM.
`Cc1ccc(-c2nc3nc(-c4ccc(F)cc4)nc(N4CCCNCC4)c3o2)cc1` showed a GI50 (ACHN renal) of 1.73 µM, a TGI (ACHN renal) of 3.1 µM and a GI50 (HCC-2998 colon) of 1.68 µM. It also gave a TGI (HCC-2998 colon) of 3.37 µM, a GI50 (HCT-15 colon) of 1.06 µM and a TGI (HCT-15 colon) of 2.42 µM. It also gave a GI50 (MALME-3M melanoma) of 1.71 µM, a TGI (MALME-3M melanoma) of 3.21 µM and a GI50 (MOLT-4 leukemia) of 1.62 µM. The TGI (MOLT-4 leukemia) was 3.47 µM, the GI50 (SF-295 CNS) was 1.82 µM and the TGI (SF-295 CNS) was 3.35 µM. For the same molecule, the GI50 (SN12C renal) was 1.67 µM, the TGI (SN12C renal) was 3.13 µM and the GI50 (SNB-75 CNS) was 1.06 µM. It also gave a TGI (SNB-75 CNS) of 2.24 µM, a GI50 (UACC-62 melanoma) of 1.83 µM and a TGI (UACC-62 melanoma) of 3.47 µM.
`CCCCCCCCCCCCCCCC[N+]1(C)CCOCC1` was tested, and the GI50 (ACHN renal) was 2.93 µM, the TGI (ACHN renal) was 13.9 µM and the GI50 (HCC-2998 colon) was 1.21 µM. The TGI (HCC-2998 colon) was 2.75 µM, the GI50 (HCT-15 colon) was 2.55 µM and the TGI (HCT-15 colon) was 7.99 µM. The GI50 (MALME-3M melanoma) was 2.38 µM, the TGI (MALME-3M melanoma) was 6.71 µM and the GI50 (MOLT-4 leukemia) was 1.6 µM. The TGI (MOLT-4 leukemia) was 3.69 µM, the GI50 (OVCAR-8 ovarian) was 2.53 µM and the TGI (OVCAR-8 ovarian) was 8.84 µM. It also gave a GI50 (SF-295 CNS) of 1.8 µM, a TGI (SF-295 CNS) of 6.29 µM and a GI50 (SN12C renal) of 2.6 µM. It also gave a TGI (SN12C renal) of 8.92 µM, a GI50 (SNB-75 CNS) of 0.868 µM and a TGI (SNB-75 CNS) of 2.46 µM. The GI50 (UACC-62 melanoma) was 1.61 µM and the TGI (UACC-62 melanoma) was 3.83 µM.
`N#CNC(N)=Nc1ccc(Cl)cc1` showed a TGI (ACHN renal) of over 100 µM, a TGI (HCC-2998 colon) of over 100 µM and a TGI (HCT-15 colon) of over 100 µM. The TGI (MALME-3M melanoma) was over 100 µM, the TGI (MOLT-4 leukemia) was over 100 µM and the TGI (OVCAR-8 ovarian) was over 100 µM. It also gave a TGI (SF-295 CNS) of over 100 µM, a TGI (SN12C renal) of over 100 µM and a TGI (SNB-75 CNS) of over 100 µM. For the same molecule, the TGI (UACC-62 melanoma) was over 100 µM.
Molecule `CNC(=O)c1nn(C)c2c1C(C)(C)Cc1cnc(Nc3ccc(N4CCN(C)CC4)cc3)nc1-2` has a GI50 (ACHN renal) of 0.424 µM, a TGI (ACHN renal) of 8.62 µM and a GI50 (HCC-2998 colon) of 2.47 µM. It also gave a TGI (HCC-2998 colon) of over 10 µM, a GI50 (HCT-15 colon) of 0.337 µM and a TGI (HCT-15 colon) of over 10 µM. For the same molecule, the GI50 (MALME-3M melanoma) was 0.431 µM, the TGI (MALME-3M melanoma) was over 9.24 µM and the GI50 (MOLT-4 leukemia) was 0.546 µM. The TGI (MOLT-4 leukemia) was over 5.29 µM, the GI50 (OVCAR-8 ovarian) was 3.17 µM and the TGI (OVCAR-8 ovarian) was over 10 µM. For the same molecule, the GI50 (SF-295 CNS) was 1.09 µM, the TGI (SF-295 CNS) was over 10 µM and the GI50 (SN12C renal) was 0.705 µM. It also gave a TGI (SN12C renal) of over 10 µM, a GI50 (SNB-75 CNS) of 0.304 µM and a TGI (SNB-75 CNS) of 2.29 µM. For the same molecule, the GI50 (UACC-62 melanoma) was 0.486 µM and the TGI (UACC-62 melanoma) was over 10 µM.
Molecule `CC(C)(C)OC(=O)NCCCCCCCn1c2c(c3ccccc3c1=O)C(=O)c1ccccc1-2` has a GI50 (ACHN renal) of 27.1 µM, a TGI (ACHN renal) of 90.4 µM and a GI50 (HCC-2998 colon) of 40.6 µM. The TGI (HCC-2998 colon) was over 100 µM, the GI50 (HCT-15 colon) was 41.7 µM and the TGI (HCT-15 colon) was over 100 µM. The GI50 (MALME-3M melanoma) was 37.2 µM, the TGI (MALME-3M melanoma) was over 100 µM and the GI50 (MOLT-4 leukemia) was 25.6 µM. The TGI (MOLT-4 leukemia) was over 100 µM, the GI50 (OVCAR-8 ovarian) was 21.5 µM and the TGI (OVCAR-8 ovarian) was over 100 µM. The GI50 (SF-295 CNS) was 37.4 µM, the TGI (SF-295 CNS) was over 100 µM and the GI50 (SN12C renal) was 73.7 µM. For the same molecule, the TGI (SN12C renal) was over 100 µM, the GI50 (SNB-75 CNS) was 21.5 µM and the TGI (SNB-75 CNS) was 49.7 µM. The GI50 (UACC-62 melanoma) was 20 µM and the TGI (UACC-62 melanoma) was 72.8 µM.
`O=C1CCCCN1CCCCC#Cc1cccc(C#Cc2cccnc2)c1` was tested, and the GI50 (ACHN renal) was 9.64 µM, the TGI (ACHN renal) was 21.7 µM and the GI50 (HCC-2998 colon) was 6.52 µM. The TGI (HCC-2998 colon) was 23.1 µM, the GI50 (HCT-15 colon) was 3.96 µM and the TGI (HCT-15 colon) was 17.7 µM. It also gave a GI50 (MALME-3M melanoma) of 21.7 µM, a TGI (MALME-3M melanoma) of 79.1 µM and a GI50 (MOLT-4 leukemia) of 73.1 µM. It also gave a TGI (MOLT-4 leukemia) of over 100 µM, a GI50 (OVCAR-8 ovarian) of 21.6 µM and a TGI (OVCAR-8 ovarian) of 67.9 µM. It also gave a GI50 (SF-295 CNS) of 18.1 µM, a TGI (SF-295 CNS) of 84 µM and a GI50 (SN12C renal) of 14.1 µM. The TGI (SN12C renal) was 28.5 µM, the GI50 (SNB-75 CNS) was 4.05 µM and the TGI (SNB-75 CNS) was 20.4 µM. For the same molecule, the GI50 (UACC-62 melanoma) was 4.82 µM and the TGI (UACC-62 melanoma) was 16.9 µM.
